Source: article PMC12040169 (PLOS Biology, 2025)

test: in vitro; settings: human, hela cells, % viability

Row | SMILES | viability at 28.5 h, 10 µM
1 | COc1cc(CN2CCN(C3CCCCC3)CC2)cc(OC)c1OC [CBK263407] | 99.1%
2 | CC(=O)N[C@H]1CO[C@H]2[C@@H]1OC[C@@H]2Nc1nccc(-c2cccc(F)c2)n1 [CBK289534] | 99.3%
3 | CC(=O)OCc1ccc(CN2CCCCCC2c2cc(C)on2)o1 (stereo not drawn) [CBK283004] | 88.2%
4 | CC(SCCc1ccccn1)C(=O)O (stereo not drawn) [CBK026572] | 109%
5 | O=C(CSc1nnc(-c2cc(Br)ccc2O)[nH]1)NCCc1ccccc1 [CBK269007] | 85.8%
6 | O=S(=O)(c1ccc(Cl)c(Cl)c1)c1ccc2nccc(N3CCNCC3)c2c1 [CBK036497C] | 84.8%
7 | Cc1nc(CCCn2cnc3ncccc3c2=O)sc1C [CBK306953] | 106%
8 | COc1cc(-c2nc(N)cc3cccnc23)cc(OC)c1OC [CBK061892] | 101%
9 | COc1cc(F)ccc1-c1ccc(NS(C)(=O)=O)c2ccccc12 [CBK083744] | 97.9%
10 | CN1[C@@H](CCC(=O)N2CCc3ccccc32)CNC(=O)[C@@H]2[C@H]1CCN2Cc1ccc(O)cc1 [CBK289021] | 88.9%
11 | CC(=O)NC(c1ccccn1)C1CCCN(C(=O)C2CC2)C1 (stereo not drawn) [CBK285040] | 100%
12 | CN(C)CCOC(=O)C1CCCCCN1C (stereo not drawn) [CBK278175G] | 97.8%
13 | COc1ccc(C(=O)Nc2nc(-c3nc4ccccc4s3)cs2)cc1 [CBK287563] | 102%
14 | CC(C)c1nnc(NS(=O)(=O)c2ccc(N)cc2)s1 [CBK050163] | 101%
15 | Cn1c(=O)c2c(ncn2CC(O)CO)n(C)c1=O (stereo not drawn) [CBK200637] | 98.5%
16 | Nc1ccc(-c2ccccc2)c2ccccc12 [CBK084312] | 97.1%
17 | O=c1[nH]nc(-c2cccs2)n1-c1cccnc1 [CBK283854] | 101%
18 | CCNC(=O)c1cncc(-c2[nH]nnc2-c2ccccc2)c1 [CBK160354] | 96.9%
19 | CCOC(=O)CN1CCC(Oc2nccnc2OCC2COc3ccccc3O2)CC1 (stereo not drawn) [CBK082989T] | 96.6%
20 | O=C(NCC(O)c1ccc2ccccc2c1)c1cnc(-c2ccccc2)c(-c2ccncc2)c1 (stereo not drawn) [CBK037438] | 91%
21 | O=C(NC(n1cnc2c(N3CCCCC3)ncnc21)C(Cl)(Cl)Cl)c1ccccc1 (stereo not drawn) [CBK261038] | 98.5%
22 | Cc1c(Cc2ccccc2)c(=O)oc2c(CN3CCCC(C)C3)c(O)ccc12 (stereo not drawn) [CBK266995] | 93.2%
23 | COCCNc1nc2c(c(N3CCC(C#N)CC3)n1)CCNCC2 [CBK307706] | 86.6%

Row | SMILES | viability at 28.5 h, 10 µM
24 | CC(=O)N1CC(C(=O)N2CC3(CCCC3)c3c(F)cccc32)C1 [CBK306292] | 97.6%
25 | CNC(=O)CSc1ncnc2c1cnn2-c1ccc(F)cc1 [CBK287633] | 94.4%
26 | OCCn1c(-c2ccc(Br)cc2)cn2c3ccccc3nc12 [CBK262167] | 95.2%
27 | CCSC1CCC(N(C)CC(=O)NCc2ccco2)C1 (stereo not drawn) [CBK304823] | 84.3%
28 | CCNC(=S)N[C@@H]1CC[C@@]2(Cc3ccc(OC)c(OC)c3)CCN(C)[C@H]2C1 [CBK023811] | 94.5%
29 | COc1ccccc1NC(=O)N(CC(C)C)CC(C)C [CBK005456] | 102%
30 | CC(=O)NCC1OCCc2ccccc21 (stereo not drawn) [CBK026449] | 98.4%
31 | c1ccc(CN2CCC(c3ccncc3)CC2)nc1 [CBK283505] | 101%
32 | Cc1cc(CN2CCOCC2)oc1C(=O)O [CBK263239C] | 104%
33 | CC1(C(=O)O)NC(c2ccccc2O)C2C(=O)N(Cc3ccccc3)C(=O)C21 (stereo not drawn) [CBK218007] | 90.6%
34 | Nc1ncc(-c2cccc(CO)c2)nc1NC1CCCCC1 [CBK063650] | 101%
35 | CC(C)c1ccc(S(=O)(=O)N2CC3CC2CO3)cc1 (stereo not drawn) [CBK050999] | 97.3%
36 | O=S(=O)(Nc1nnn[nH]1)c1ccccc1Br [CBK062386] | 96.3%
37 | O=C(O)c1cccc(-c2cncc(NCc3ccncc3)n2)c1 [CBK037915] | 106%
38 | O=C(NCc1ccc(Cl)cc1)N1CCN(c2ccccc2)CC1 [CBK155193] | 97.9%
39 | CCN(CC)C(=O)CN(CCc1ccc(OC)c(OC)c1)C(=O)NCc1cc(C)on1 [CBK160581] | 96.1%
40 | c1ccc2cc(-c3cncc(NCc4ccncc4)n3)ccc2c1 [CBK037899] | 92.2%
41 | COc1ccc(C[C@@H]2NC(=O)[C@H]3CN(C(=O)c4cccc(F)c4)CCN3C2=O)cc1 [CBK289604] | 88.8%
42 | COCCNC(=O)N1CCN(Cc2ccccn2)CC1 [CBK304817] | 110%
43 | Cc1nn(C(C)CC(=O)NC2CCCOC2)c(C)c1C (stereo not drawn) [CBK283133] | 112%
44 | Cc1nc2ccccc2c(C)c1CC(=O)N(C)Cc1cnn(C)c1 [CBK304895] | 96.1%
45 | Cc1ccc(CSc2cnc(C(C)(C)C)nc2)cc1 [CBK019832] | 112%
46 | Cc1noc(C)c1CN1CCC(c2ccccc2)C1 (stereo not drawn) [CBK304451] | 109%

Row | SMILES | viability at 28.5 h, 10 µM
47 | CN1CCN(C)C(COc2ncccc2C(F)(F)F)C1 (stereo not drawn) [CBK113458] | 90.5%
48 | CN1C(=O)CC2(C1=O)C(=O)N(CCCCOc1ccccc1)c1ccc(F)cc12 (stereo not drawn) [CBK075408] | 96%
49 | Cn1c(N2CC[C@H](O)C2)nc2cc(C(=O)NC[C@@H]3CCCO3)ccc21 [CBK307433] | 109%
50 | COc1ccccc1CC(=O)N(Cc1cccnc1)C[C@@H]1CCC(=O)N1 [CBK307504] | 95.7%
51 | CCn1cc(C(=O)O)c(=O)c2cnc(N3CCN(C(=S)NC(=O)C4c5ccccc5Oc5ccccc54)CC3)nc21 [CBK267114] | 91.6%
52 | Cc1ccc(CCC(=O)C(C#N)c2nc3ccccc3s2)o1 (stereo not drawn) [CBK268944] | 112%
53 | COc1ccc(C(NC(=O)NNC(=O)Cc2ccc(Cl)cc2)c2ccccc2C)cn1 (stereo not drawn) [CBK083660] | 96.1%
54 | COc1ccc(OC)c(S(=O)(=O)n2ccc3c(N4CCNCC4)nccc32)c1 [CBK059067C] | 101%
55 | CCCCCn1c(=O)c(C(=O)NCc2ccc(Cl)cc2)c(O)c2ccccc21 [CBK291131] | 117%
56 | O=C(Cc1ccc(F)cc1)N1CCC(c2cccc(Cc3ccccc3F)n2)CC1 [CBK286213] | 117%
57 | Cc1cc(C)nc(N2CCC(CC(=O)NCCOc3cccc(F)c3)CC2)n1 [CBK285996] | 112%
58 | COc1ccc(C(=O)N2Cc3ccccc3C2)c(OC)n1 [CBK200317] | 103%
59 | Cc1nn2c(CN(C(=O)c3ccccc3)c3ccccc3)nnc2c2ccccc12 [CBK268084] | 87.7%
60 | COc1ccc(-c2cc(N3CCCN(C)CC3)n3nccc3n2)cc1 [CBK037244] | 106%
61 | Cc1c(Cl)cccc1S(=O)(=O)Nc1nccnc1C(=O)O [CBK024795] | 90.9%
62 | c1ccc(-c2nc(-c3ccncc3)[nH]c2-c2ccccc2)cc1 [CBK291155] | 85.3%
63 | CN1C(=O)COC[C@@H]1[C@H](O)c1ccc(NC(=O)C2CC2)cc1 [CBK289057] | 83.1%
64 | O=C(CNC(=O)c1cccc(Cl)c1)N/N=C/C=C/c1ccccc1 [CBK261947] | 90.4%
65 | O=C(CNC(=O)c1ccncc1)N/N=C/c1c(O)ccc2ccccc12 [CBK261378] | 77%
66 | N#C/C(=C\Nc1ccc(S(N)(=O)=O)cc1)c1nc(-c2cccc([N+](=O)[O-])c2)cs1 [CBK262366] | 115%
67 | O=C(O)c1cc2nc3c(c(C(F)(F)F)n2n1)CCc1ccccc1-3 [CBK263025] | 102%
68 | C=CCOc1ccc(Cl)cc1C(=O)NCc1c(C)n[nH]c1C [CBK282587] | 82.6%
69 | CC(C)Nc1nc2ccccc2nc1OC1CCN(C)C1 (stereo not drawn) [CBK113283] | 81.1%

Row | SMILES | viability at 28.5 h, 10 µM
70 | O=C(CN1C(=O)[C@@H]2CCCN2C(=O)c2ccccc21)N1CCCC1 [CBK282434] | 104%
71 | Cc1ccc(S(=O)(=O)N2CCCC(C(=O)O)C2)cc1 (stereo not drawn) [CBK100948] | 88.6%
72 | FC(F)(F)c1ccc(SCc2ccccc2)nc1 [CBK103715] | 89.7%
73 | COCc1cc(=O)oc2cc(NS(C)(=O)=O)ccc12 [CBK008516] | 119%
74 | Cn1c(=O)c2c(ncn2CC(=O)Nc2cccnc2)n(C)c1=O [CBK133286] | 94.5%
75 | O=C(O)c1ccc(NC(=O)c2cn(-c3ccccc3)nc2-c2cc3ccccc3oc2=O)cc1 [CBK266432] | 99.8%
76 | CC1=C[C@@H](CNC(=O)NC2CCCCC2)[C@H](C(C)C)C[C@H]1CC(=O)O [CBK289211] | 80.3%
77 | O=C(NCCc1c[nH]cn1)Nc1cccc(C(F)(F)F)c1 [CBK269822] | 105%
78 | O=C(c1ccccc1)c1ccc2n1CCC2C(=O)N1CCN(c2ccccc2)CC1 (stereo not drawn) [CBK300536] | 115%
79 | COc1ccc(-c2nc(NC(=O)c3cccc(S(C)(=O)=O)c3)cnc2-c2ccc(F)cc2)cc1 [CBK037110] | 100%
80 | CC(C)(C)CC(=O)N1C[C@@H]2C[C@H](C1)c1ccc(NC(=O)Nc3ccccc3)c(=O)n1C2 [CBK289176] | 85.8%
81 | O=C(Cn1nc2n(c1=O)CCCC2)NCc1ccccc1Cl [CBK304647] | 104%
82 | O=C(O)CCc1ccc(-c2ccc(N3CCN(CCN4CCCC4)CC3)nc2)cc1 [CBK037796] | 103%
83 | COc1ccc(C2C(C(C)=O)=C(O)C(=O)N2CCC(=O)O)cc1 (stereo not drawn) [CBK263763] | 97.3%
84 | CSCCCNC(=O)c1ccc2[nH]ccc2c1 [CBK149056] | 100%
85 | CS(=O)(=O)N[C@H]1CO[C@H]2[C@@H]1OC[C@@H]2Nc1nccc(-c2ccco2)n1 [CBK289525] | 96.4%
86 | CC(C)C1OC(NCc2ccc(Cl)cc2)=NC1=O (stereo not drawn) [CBK070352] | 94.9%
87 | O=C(O)c1cccc(N(CCO)CCO)c1 [CBK262419] | 93.6%
88 | c1cc(-c2nnn[nH]2)ccc1OCc1nnn[nH]1 [CBK268083] | 93.1%
89 | Cc1ccc2c(c1)c(=O)cc(C(F)(F)F)n2CCNC(=O)C1CC1 [CBK284831] | 93.1%
90 | Cc1ccc(S(=O)(=O)Nc2nnc(C3CCCCC3)s2)cc1 [CBK022722] | 101%
